Reference: publication PMC10157211, “Four new suomilides isolated from the cyanobacterium Nostoc sp. KVJ20 and proposal of their biosynthetic origin” (Frontiers in Microbiology, 2023)

Assays:
[1] = Dissolution of isolated fractions in solvent; assay type: physicochemical
Experimental: Compounds 1–4 were isolated using mass-guided fractionation on preparative HPLC from 29.4 g dry mass of lyophilizated cyanobacteria from 10 L of culture. For the first purification step, the compounds were separated using a C18 reversed phase column. The collected fractions were reduced to dryness at 40°C in vacuo. […] The yields were: 1: 9.8 mg; 2: 4.1 mg; 3: 5.9 mg; 4: 2.6 mg.

trypsin = conditions: ref Pluotno and Carmeli, 2005; cited from earlier work
Text: (§1) Compounds 5 and 6 were originally isolated via bioassay guided purification using a serine-protease inhibition assay when they were discovered in 2005 ([Pluotno and Carmeli, 2005]). The two banyasides were reported to inhibit the catalytic activity of trypsin. As far as we know, anti-bacterial activity of suomilide have not been reported previously, and the Nostoc sp. strain it has been isolated from was reported as non-toxic. This complies with our results, as no activity could be detected for 1–4 against bacteria or cell lines at high concentrations. Suomilide A has recently been investigate ...

[2] = system: cancer cell proliferation; conditions: ref Ahmed et al., 2021; cited from earlier work
Text: as §1

prostate cancer cells = conditions: concentration of 3.3 μM; ref Ahmed et al., 2021; cited from earlier work
Text: as §1

trypsin-1 = conditions: ref Ahmed et al., 2021; read-out: IC50 trypsin-1 inhibition; cited from earlier work
Text: as §1

trypsin-2 = conditions: ref Ahmed et al., 2021; read-out: IC50 trypsin-2 inhibition; cited from earlier work
Text: as §1

trypsin-3 = conditions: ref Ahmed et al., 2021, cited from earlier work
Text: as §1

In the case of Suomilide B [Compound 1], the “solubility in DMSO (qualitative)” value ([1]; dried HPLC fraction dissolved in DMSO, after extensive shaking) is reported as “well” and the “solubility in methanol (qualitative)” value ([1]; dried HPLC fraction dissolved in methanol) is reported as “dissolved poorly”.
For banyaside A [Compound 5], the “inhibition of the catalytic activity of trypsin” value (trypsin) is given as “inhibit”.
For banyaside B [Compound 6], the “inhibition of the catalytic activity of trypsin” value (trypsin) is listed as “inhibit”.
In the case of suomilide [Suomilide A], the “effect on cancer cell proliferation” value [2] is listed as “no effect”, the “inhibition of invasion of prostate cancer cells” value (prostate cancer cells) is listed as “inhibit the invasion” and the IC50 (trypsin-1) is listed as 104 nM. The IC50 (trypsin-2) was 4.7 nM, the IC50 (trypsin-3; read-out: IC50 trypsin-3 inhibition) was 11.5 nM and the residence time (trypsin-3; surface plasmon resonance spectroscopy) was 57 min.
